Measured values reported in patent US20160251612A1, “CULTURE MEDIUM FOR ESTABLISHING NEUROEPITHELIAL STEM CELLS, METHOD FOR ESTABLISHING NEUROEPITHELIAL STEM CELLS, AND APPLICATIONS THEREOF” (YUNNAN KEY LAB OF PRIMATE BIOMEDICINE RESEARCH, priority 2014, published 2016).

How the values were obtained:
[1] = test system: single neuroepithelial stem cell; assay: modeling neural tube defect disease by the single neuroepithelial stem cell to neural tubes assay (folic acid); assay type: cell-based; conditions: FIG. 5 (C)
[2] = test system: single neuroepithelial stem cells; assay: single cell culture tests: single neuroepithelial stem cell to neural tubes, one ingredient removed from the culture medium or inhibitor added; assay type: cell-based; conditions: for ability of the cells to form neural tubes: ingredient removed from the proliferation culture medium; for ability of the cells to form neural tubes / cell proliferation ability: single cell culture; for cell proliferation ability: ingredient removed alone from the proliferation culture medium
From the text: Additionally, a neuroepithelial stem cell can self-organize into the neural tube structures. Preferably, the operation may be performed as follows: neuroepithelial stem cells cultured for long term are digested into single cells, limitedly diluted, and cultured on wells of a 96-well plate coated with laminin, one cell per well, in the above proliferation culture medium; the liquid is changed every 2-3 days, and the single neuroepithelial stem cells self-organize into a series of neural tube structures at the 14-15th day. These neural tube structures derived from single cells express Sox2, Nestin, Pax6, ZO-1 and N-cadherin.
In addition, in the present embodiment, in order to detect which factors in the whole culture system are essential and necessary for the growth and generation of the neural tubes, it is possible to use the characteristic of the single cell forming the neural tube structure and to perform a series of single cell culture tests where one ingredient is removed from the culture medium every time to estimate which ingredients are essential for self-renewal of the neuroepithelial stem cells and formation of the neural tube.
SU5402 is an inhibitor of the FGF receptor. What the arrow points to is the miniature neural tube structure derived from the single neuroepithelial stem cell in the neuroepithelial stem cell proliferation culture medium containing SU5402.

| Compound | ability of the cells to form neural tubes [2] | cell proliferation ability [2] | further results |
| --- | --- | --- | --- |
| Nc1nc2ncc(CNc3ccc(C(=O)N[C@@H](CCC(=O)O)C(=O)O)cc3)nc2c(=O)[nH]1 [folic acid] |  |  | colony apoptosis versus concentration of the folic acid [1]: in negative correlation with colony apoptosis; neural tube formation versus concentration of the folic acid [1]: in positive correlation with the neural tube formation |
| Cc1c[nH]c(/C=C2\C(=O)Nc3ccccc32)c1CCC(=O)O [SU5402, reference compound] |  |  | ability to produce neural tubes ([2]; SU5402 used to inhibit FGFR signaling pathway in proliferation culture medium): all cells lose the ability to produce neural tubes |
| NC(=O)c1ccc(-c2nc(-c3ccc4c(c3)OCO4)c(-c3ccccn3)[nH]2)cc1 [SB431542, reference compound] | does not affect the ability of the cells to form neural tubes |  |  |
| Cc1c[nH]c(-c2cnc(NCCNc3ccc(C#N)cn3)nc2-c2ccc(Cl)cc2Cl)n1.Cl [CHIR99021, reference compound] | no cell could produce the neural tube structure |  |  |
| Leukemia Inhibitory Factor: regulates cell proliferation and differentiation; ingredient of the proliferation culture medium | significant decrease | significant decrease | continuous production of neural tube structures ([2]; secondary clone assays): necessary for cells to continuously produce neural tube structures |
| bFGF: growth factor; promotes early-stage differentiation and proliferation of neural stem cells | significant decrease | significant decrease |  |
